Measured values from patent US8092829B2, “Use of R-arylpropionic acids for treating illnesses with a rheumatic nature” (Paz Arzneimittelentwicklungsgesellschaft mbH, priority 2000, dated 2012).

Test system: AP-1
Experiment: Inhibition of AP-1 activation (AP-1 DNA binding activity by EMSA) in LPS-stimulated RAW 264-7 macrophages
Format: cell-based, murine
Conditions: LPS-stimulated RAW 264-7 cells, nuclear extract; for AP-1 DNA binding at the highest concentration: 1000 μM (tested 0.1-1000 μM)
Experimental: The inhibition of the activation of AP-1 was shown with a pharmacological model. For this purpose, a cell culture of the murine macrophage cell line RAW 264-7 was taken and stimulated with 10 mg/ml LPS for 1 hour in the absence or in the presence of flurbiprofen. R-flurbiprofen (0.1, 1, 10, 100 and 1000 μM) and S-flurbiprofen (0.1, 1, 10, 100 and 1000 μM) were dissolved in phosphate buffer, added to the cell cultures 30 minutes before the LPS treatment. After conclusion of the treatment, the cells were harvested and worked up in a cytosol fraction and a cell nucleus extract. The cell nucleus extract ([…]) was incubated for 30 minutes with the AP-1-specific oligonucleotide 5′-CGCTT GATGACTCAGCCGGAA-3′ which is terminally labelled with ^32P ATP. From the incubation medium was separated the nucleus protein DNA complexes from the non-bound DNA by electro-phoresis (electrophoretic mobile shift assay EMSA). After drying of the gels, these were visualised by means of autoradiography.

Structure (SMILES)	AP-1 DNA binding at the highest concentration	inhibition of AP-1 DNA binding (10-1000 μM, added 30 minutes before LPS)
C[C@@H](C(=O)O)c1ccc(-c2ccccc2)c(F)c1 [R-flurbiprofen]	completely suppressed	inhibits the AP-1 DNA binding dosage-dependent
C[C@H](C(=O)O)c1ccc(-c2ccccc2)c(F)c1 [S-flurbiprofen, reference compound]	a reduction was found only in the case of the highest concentration	–
